The source of these data is PubChem BioAssay AID328 (DTP/NCI, 2004).

Several values for one entry are separate records, joined by “and”; a condition that tells them apart may be missing. Equal values may be shown once. Toxic doses and inconclusive results are not listed.

The test deals with BDF1 mice, P388 leukemia ip, median survival T/C. Kind of test: NCI In Vivo Anticancer Drug Screen. Data for tumor model P388 Leukemia (intraperitoneal) in B6D2F1 (BDF1) mice. Conditions: endpoint: median survival time, higher = longer survival. Put shortly: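 Steps: implant the tumour, treat one group with compound and another with vehicle, record survival, then divide treated by control.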

[1] abbreviates: dose: 75.0 mg/kg/injection, schedule: Q04DX003 (ip), vehicle: saline with Tween-80.
The mark [2] stands for this setting: dose: 50.0 mg/kg/injection, schedule: Q01DX009 (ip), vehicle: saline with Tween-80.
[3] abbreviates: dose: 100.0 mg/kg/injection, schedule: Q01DX009 (ip), vehicle: saline with Tween-80.
[4] abbreviates: dose: 200.0 mg/kg/injection, schedule: Q01DX009 (ip), vehicle: saline with Tween-80.
Where [5] appears, read: dose: 50.0 mg/kg/injection, schedule: Q04DX003 (ip), vehicle: saline with Tween-80.
Setting [6] is: dose: 100.0 mg/kg/injection, schedule: Q04DX003 (ip), vehicle: saline with Tween-80.
[7] abbreviates: dose: 200.0 mg/kg/injection, schedule: Q04DX003 (ip), vehicle: saline with Tween-80.

In the case of `NC(CS/C(Cl)=C/Cl)C(=O)O` (stereo unspecified), the T/C by setting is: (dose: 1.5 mg/kg/injection, schedule: Q01DX009 (ip), vehicle: saline) 95 % of control; (dose: 3.0 mg/kg/injection, schedule: Q01DX009 (ip), vehicle: saline) 100 % of control and 109 % of control; (dose: 6.0 mg/kg/injection, schedule: Q01DX009 (ip), vehicle: saline) 92 % of control and 95 % of control; (dose: 7.4 mg/kg/injection, schedule: Q01DX009 (ip), vehicle: saline) 109 % of control; (dose: 11.0 mg/kg/injection, schedule: Q01DX009 (ip), vehicle: saline) 113 % of control; (dose: 12.0 mg/kg/injection, schedule: Q01DX009 (ip), vehicle: saline) 90 % of control. Besides, the T/C (dose: 16.0 mg/kg/injection, schedule: Q04DX003 (ip), vehicle: saline) is 120 % of control; the T/C (dose: 17.0 mg/kg/injection, schedule: Q01DX009 (ip), vehicle: saline) was 152 % of control; the T/C (dose: 25.0 mg/kg/injection, schedule: Q04DX003 (ip), vehicle: saline) is 120 % of control; the T/C (dose: 27.0 mg/kg/injection, schedule: Q01DX009 (ip), vehicle: saline) was 168 % of control; the T/C (dose: 35.0 mg/kg/injection, schedule: Q04DX003 (ip), vehicle: saline) is 104 % of control.
As for `CC1CCC2(C)CCC3(C)C(=CCC4C5(C)CCC(OC(=O)c6ccccc6)C(C)(C)C5CCC43C)C2C1C` (stereo unspecified), the T/C is 100 % of control under setting [1]; 100 % of control (dose: 150.0 mg/kg/injection, schedule: Q04DX003 (ip), vehicle: saline with Tween-80); 105 % of control (dose: 300.0 mg/kg/injection, schedule: Q04DX003 (ip), vehicle: saline with Tween-80).
As to `CCOC1OCN(c2cccc(Cl)c2)CC1(C)C` (stereo unspecified), the T/C under setting [2] was 98 % of control, the T/C under setting [3] was 112 % of control and the T/C under setting [4] was 114 % of control.
As to `Cn1nc([N+](=O)[O-])sc1=N`, the T/C (dose: 50.0 mg/kg/injection, schedule: Q01DX001 (ip), vehicle: saline sonified) was 105 % of control; the T/C (dose: 100.0 mg/kg/injection, schedule: Q01DX001 (ip), vehicle: saline sonified) was 105 % of control; the T/C (dose: 200.0 mg/kg/injection, schedule: Q01DX001 (ip), vehicle: saline sonified) is 110 % of control.
`CC(=O)OCCC(CCOC(C)=O)=C1N=C(c2ccccc2)OC1=O`: the T/C was 120 % of control under setting [3]; 118 % of control (dose: 300.0 mg/kg/injection, schedule: Q01DX009 (ip), vehicle: saline with Tween-80); 116 % of control (dose: 400.0 mg/kg/injection, schedule: Q01DX009 (ip), vehicle: saline with Tween-80).
In the case of `CCOC(=O)C(Cc1ccc(OC)c(OC)c1)C(Cc1ccc(OC)c(OC)c1)C(=O)OCC` (stereo unspecified), the T/C was 90 % of control under setting [3] and 104 % of control under setting [4].
Turning to `C/C(Cc1ccccc1)=N/N(C)C`, the T/C is 108 % of control (dose: 25.0 mg/kg/injection, schedule: Q04DX003 (ip), vehicle: saline with Tween-80); 100 % of control under setting [5]; 104 % of control under setting [6].
On to `Cc1ccc(S(=O)(=O)OCC2C3CCCC2C3)cc1` (stereo unspecified), for which the T/C by setting is: under setting [2], 101 % of control; under setting [3], 100 % of control; under setting [4], 96 % of control.
Take `CCN(CC)CCCC(C)NC(=O)c1ccc(Cl)nc1` (stereo unspecified): the T/C is, setting by setting: (dose: 37.5 mg/kg/injection, schedule: Q01DX009 (ip), vehicle: saline with Tween-80) 107 % of control; under setting [2], 113 % of control; under setting [5], 103 % of control; (dose: 75.0 mg/kg/injection, schedule: Q01DX009 (ip), vehicle: saline with Tween-80) 96 % of control; under setting [6], 107 % of control; (dose: 150.0 mg/kg/injection, schedule: Q01DX009 (ip), vehicle: saline with Tween-80) 117 % of control. The T/C under setting [4] is 97 % of control and the T/C under setting [7] was 110 % of control.
In the case of `S=C1CCNCC1`, the T/C is, setting by setting: (dose: 12.5 mg/kg/injection, schedule: Q01DX009 (ip), vehicle: saline) 95 % of control; (dose: 25.0 mg/kg/injection, schedule: Q01DX009 (ip), vehicle: saline) 86 % of control; (dose: 50.0 mg/kg/injection, schedule: Q01DX009 (ip), vehicle: saline) 100 % of control.
Regarding `O=[N+]([O-])c1ccc(SCc2ccccc2)c2nonc12`, the T/C runs as follows: under setting [2], 150 % of control; under setting [3], 153 % of control.
Take `NC1CCC(CCCC2CCCC2)CC1` (stereo unspecified): the T/C reads like this: (dose: 25.0 mg/kg/injection, schedule: Q01DX009 (ip), vehicle: Klucel (hydroxypropylcellulose) (HPC)) 101 % of control; (dose: 50.0 mg/kg/injection, schedule: Q01DX009 (ip), vehicle: Klucel (hydroxypropylcellulose) (HPC)) 110 % of control.
As to `CC(=O)N\C(N)=N/N=C\C(C)=N/N=C(\N)NC(C)=O`, the T/C is 97 % of control under setting [2], 100 % of control under setting [3] and 100 % of control under setting [4].
Consider `COc1cccc(/C=C(/SC)S(C)=O)c1OC` (stereo unspecified), for which the T/C was 106 % of control (dose: 100.0 mg/kg/injection, schedule: Q04DX003 (ip), vehicle: saline); 115 % of control (dose: 200.0 mg/kg/injection, schedule: Q04DX003 (ip), vehicle: saline); 120 % of control (dose: 400.0 mg/kg/injection, schedule: Q04DX003 (ip), vehicle: saline).
Take `CSc1ncnc2nc[nH]c12`: the T/C runs as follows: (dose: 25.0 mg/kg/injection, schedule: Q01DX010 (ip), vehicle: saline) 100 % of control; (dose: 50.0 mg/kg/injection, schedule: Q01DX010 (ip), vehicle: saline) 100 % of control; (dose: 100.0 mg/kg/injection, schedule: Q01DX010 (ip), vehicle: saline) 95 % of control and 100 % of control; (dose: 200.0 mg/kg/injection, schedule: Q01DX010 (ip), vehicle: saline) 104 % of control and 105 % of control.
With `CCCCNC1=C(N2CC2)C(=O)C(NCCCC)=C(N2CC2)C1=O`, the T/C is, setting by setting: (dose: 1.25 mg/kg/injection, schedule: Q01DX009 (ip), vehicle: saline) 107 % of control; (dose: 5.0 mg/kg/injection, schedule: Q01DX009 (ip), vehicle: saline) 87 % of control.
In the case of `C[C@]12C=CC(=O)C=C1CC[C@@H]1[C@@H]2[C@@H](O)C[C@@]2(C)[C@H]1CC[C@]2(O)C(=O)CO`, the T/C was 109 % of control and 120 % of control (dose: 12.5 mg/kg/injection, schedule: Q01DX010 (sc), vehicle: steriod suspending solution); 109 % of control and 110 % of control (dose: 25.0 mg/kg/injection, schedule: Q01DX010 (sc), vehicle: steriod suspending solution); 113 % of control and 120 % of control (dose: 50.0 mg/kg/injection, schedule: Q01DX010 (sc), vehicle: steriod suspending solution); 118 % of control and 120 % of control (dose: 100.0 mg/kg/injection, schedule: Q01DX010 (sc), vehicle: steriod suspending solution).
As to `CC1C(=O)CCC2(C)CCC(C)(C)CC12` (stereo unspecified), the T/C was 109 % of control under setting [6]; 109 % of control under setting [7]; 95 % of control (dose: 400.0 mg/kg/injection, schedule: Q04DX003 (ip), vehicle: saline with Tween-80).
For the molecule `CCOC(=O)c1c(NC(C)=O)sc2c1CCCC2`, the T/C by setting is: under setting [2], 104 % of control; under setting [5], 90 % of control; under setting [3], 100 % of control; under setting [6], 104 % of control; under setting [4], 100 % of control; under setting [7], 100 % of control.
Consider `CC1CCOS(=O)O1` (stereo unspecified), for which the T/C is 100 % of control (dose: 10.0 mg/kg/injection, schedule: Q01DX010 (ip), vehicle: saline); 95 % of control and 104 % of control (dose: 20.0 mg/kg/injection, schedule: Q01DX010 (ip), vehicle: saline); 100 % of control and 104 % of control (dose: 40.0 mg/kg/injection, schedule: Q01DX010 (ip), vehicle: saline).
`CCCCCCCCCCCCOc1ccccc1`: the T/C was 100 % of control under setting [5], 109 % of control under setting [6] and 100 % of control under setting [7].
Turning to `CC1=CC(=O)c2c(O)cc(C)c(C(=O)C(Cl)Cl)c2C1=O`, the T/C runs as follows: (dose: 10.0 mg/kg/injection, schedule: Q01DX009 (ip), vehicle: Klucel (hydroxypropylcellulose) (HPC)) 112 % of control; (dose: 20.0 mg/kg/injection, schedule: Q01DX009 (ip), vehicle: Klucel (hydroxypropylcellulose) (HPC)) 112 % of control.
Consider `CCCCCCN(CCCCCC)P(=O)(N1CC1)N1CC1`, for which the T/C (dose: 14.0 mg/kg/injection, schedule: Q04DX003 (ip), vehicle: saline) was 95 % of control; the T/C (dose: 21.0 mg/kg/injection, schedule: Q04DX003 (ip), vehicle: saline) is 104 % of control; the T/C (dose: 33.0 mg/kg/injection, schedule: Q04DX003 (ip), vehicle: saline with Tween-80) was 100 % of control and 118 % of control; the T/C under setting [5] is 150 % of control; the T/C under setting [1] was 181 % of control.
`CCCCCCCCCCCCSSC(=S)OC(C)C`: the T/C runs as follows: (dose: 50.0 mg/kg/injection, schedule: Q01DX009 (ip), vehicle: other) 106 % of control; (dose: 100.0 mg/kg/injection, schedule: Q01DX009 (ip), vehicle: other) 124 % of control.
